Measurements: ChEMBL document CHEMBL6109084 (Eur J Med Chem, 2025)

Columns and labels:
[1] = tested on: Plasma; assay: Anticoagulant activity in citrated human plasma assessed as prolongation of activated partial thromboplastin time at 1 uM incubated for 3 mins by aPTT reagent based automated coagulometric analysis relative to control; format: functional; conditions: 0.05 h
[2] = target: Coagulation factor XI (Homo sapiens, UniProt P03951); assay: Inhibition of human FXIa using p-Glu-Pro-Arg-pNA.HCl as substrate incubated for 30 mins followed by substrate addition and measured after 60 mins by microplate reader analysis
Chain of Coagulation factor XI (P03951 19-387 limits assumed): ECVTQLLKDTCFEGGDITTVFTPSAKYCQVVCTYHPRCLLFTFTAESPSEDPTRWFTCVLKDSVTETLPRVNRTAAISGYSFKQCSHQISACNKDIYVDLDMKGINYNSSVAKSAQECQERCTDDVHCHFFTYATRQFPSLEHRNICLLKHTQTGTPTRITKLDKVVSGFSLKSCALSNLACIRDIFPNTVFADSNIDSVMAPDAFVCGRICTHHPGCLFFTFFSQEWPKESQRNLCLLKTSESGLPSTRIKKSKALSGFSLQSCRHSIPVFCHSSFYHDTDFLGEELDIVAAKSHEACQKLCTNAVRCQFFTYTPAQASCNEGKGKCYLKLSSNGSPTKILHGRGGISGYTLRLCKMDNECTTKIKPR
Chain of Coagulation factor XI (P03951 388-625 limits assumed): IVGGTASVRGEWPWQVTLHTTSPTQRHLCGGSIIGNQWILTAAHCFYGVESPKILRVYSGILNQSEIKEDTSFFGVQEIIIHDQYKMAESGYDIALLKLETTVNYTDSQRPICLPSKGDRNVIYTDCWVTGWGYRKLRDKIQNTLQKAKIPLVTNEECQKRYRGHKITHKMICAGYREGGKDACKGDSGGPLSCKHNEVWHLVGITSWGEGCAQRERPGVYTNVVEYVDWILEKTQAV

SMILES	Activity [1] [%]	IC50 [2] [nM]
COc1cn(Cc2ccc(F)c(-c3ccc(C(N)=O)cc3F)c2)c(=O)cc1-c1cc(Cl)ccc1-n1cnnn1	47	4.7
COc1cn(Cc2ccc(-c3ccc(O)cc3)cc2)c(=O)cc1-c1cc(Cl)ccc1-n1cnnn1	–	203
COc1cn(Cc2cccc(-c3ccc(NC(C)=O)cc3)c2)c(=O)cc1-c1cc(Cl)ccc1-n1cnnn1	50.8	6.4
COc1cn(C(C)c2cccc(-c3ccncc3)c2)c(=O)cc1-c1cc(Cl)ccc1-n1cnnn1 (centres undefined)	80.1	2.4
COc1cn(Cc2ccc(F)c(-c3ccc(N)nc3)c2)c(=O)cc1-c1cc(Cl)ccc1-n1cnnn1	128.5	0.69
COc1cn(Cc2cc(-c3cnc(N)nc3)ccn2)c(=O)cc1-c1cc(Cl)ccc1-n1cnnn1	–	95.3
COc1cn(Cc2cccc(-c3ccc(F)cc3F)c2)c(=O)cc1-c1cc(Cl)ccc1-n1cnnn1	–	15.1
COc1cn(C(C)c2ccc(F)c(-c3ccc(N)nc3)c2)c(=O)cc1-c1cc(Cl)ccc1-n1cnnn1 (centres undefined)	14.8	1.4
CCC(c1cc(-c2ccc(N)nc2F)ccn1)n1cc(OC)c(-c2cc(Cl)ccc2-n2cnnn2)cc1=O (racemic)	97.2	0.39
COc1cn(Cc2cccc(-c3ccc(N)nc3)c2)c(=O)cc1-c1cc(Cl)ccc1-n1cc(Cl)nn1	82.8	2.2
COc1cn(Cc2cccc(-c3ccc(F)cc3)c2)c(=O)cc1-c1cc(Cl)ccc1-n1cnnn1	–	10.1
CC[C@H](c1cc(-c2ccc(N)nc2F)ccn1)n1cc(OC)c(-c2cc(Cl)ccc2-n2cnnn2)cc1=O	56.3	6.7
CNC(=O)c1ccc(-c2cccc(Cn3cc(OC)c(-c4cc(Cl)ccc4-n4cnnn4)cc3=O)c2)cc1	45.4	5.9
COc1cn(Cc2ccnc(-c3ccc(N)nc3)c2)c(=O)cc1-c1cc(Cl)ccc1-n1cnnn1	112.5	0.33
COc1cn(Cc2cccc(-c3ccc(N)nc3)c2)c(=O)cc1-c1cc(Cl)ccc1-n1cnnn1	143.3	0.35
COc1cn(Cc2ccnc(-c3ccncc3)c2)c(=O)cc1-c1cc(Cl)ccc1-n1cnnn1	113.1	2.3
CCC(c1cccc(-c2ccc(N)nc2)c1)n1cc(OC)c(-c2cc(Cl)ccc2-n2cc(Cl)nn2)cc1=O (centres undefined)	55.6	1.6
COc1cn(Cc2cccc(-c3ccc4[nH]ncc4c3)c2)c(=O)cc1-c1cc(Cl)ccc1-n1cnnn1	38.7	4
COc1cn(Cc2cccc(-c3ccc(N)nc3)c2)c(=O)cc1-c1cc(Cl)ccc1OC(F)F	–	> 500
COc1c[nH]c(=O)cc1-c1cc(Cl)ccc1-n1cnnn1	–	1100
COc1ccc(-c2cccc(Cn3cc(OC)c(-c4cc(Cl)ccc4-n4cnnn4)cc3=O)c2)cc1	–	129

SMILES	Activity [1] [%]	IC50 [2] [nM]
COc1cn(Cc2cccc(-c3ccncc3)c2)c(=O)cc1-c1cc(Cl)ccc1-n1cc(Cl)nn1	78.1	4.2
COc1cn(Cc2cccc(-c3ccc(N)nc3)c2)c(=O)cc1-c1cc(Cl)ccc1C(F)F	–	> 1000
COc1cn(Cc2cccc(-c3ccncc3)c2)c(=O)cc1-c1cc(Cl)ccc1C(F)F	–	> 1000
COc1cn(Cc2cccc(-c3ccc(N(C)C)cc3)c2)c(=O)cc1-c1cc(Cl)ccc1-n1cnnn1	–	> 500
COc1cn(Cc2ccc(F)c(-c3ccc4[nH]ncc4c3)c2)c(=O)cc1-c1cc(Cl)ccc1-n1cnnn1	57.1	1.3
COc1cn(Cc2ccc(F)c(-c3ccc(NC(C)=O)cc3)c2)c(=O)cc1-c1cc(Cl)ccc1-n1cnnn1	86.8	1.9
COc1cn(Cc2cccc(-c3ccc(N)nc3F)c2)c(=O)cc1-c1cc(Cl)ccc1-n1cnnn1	103.4	0.39
COc1cn(Cc2cccc(-c3ccncc3)c2)c(=O)cc1-c1cc(Cl)ccc1OC(F)F	–	> 500
COc1cn(Cc2ccc(F)c(-c3ccncc3)c2)c(=O)cc1-c1cc(Cl)ccc1-n1cnnn1	129.8	1.8
CNC(=O)c1ccc(-c2cc(Cn3cc(OC)c(-c4cc(Cl)ccc4-n4cnnn4)cc3=O)ccc2F)cc1	49.9	5.2
COc1cn(Cc2cccc(-c3ccc(O)cc3)c2)c(=O)cc1-c1cc(Cl)ccc1-n1cnnn1	26.6	1.7
COc1cn(Cc2ccc3ccccc3c2)c(=O)cc1-c1cc(Cl)ccc1-n1cnnn1	–	39
COc1cn(Cc2ccc(F)c(-c3ccc(N)nc3)c2)c(=O)cc1-c1cc(Cl)ccc1-n1cc(Cl)nn1	55.4	3.2
COc1cn(Cc2ccc(F)c(-c3ccncc3)c2)c(=O)cc1-c1cc(Cl)ccc1-n1cc(Cl)nn1	74.7	4.9
COc1cn(C(C)c2cccc(-c3ccc(N)nc3)c2)c(=O)cc1-c1cc(Cl)ccc1-n1cnnn1 (centres undefined)	74.3	0.54
COc1ccc(Cn2cc(OC)c(-c3cc(Cl)ccc3-n3cnnn3)cc2=O)cc1-c1ccncc1	70	2.1
COc1ccc(Cn2cc(OC)c(-c3cc(Cl)ccc3-n3cnnn3)cc2=O)cc1-c1ccc(N)nc1	50.4	1.7
COc1cn(Cc2cccc(-c3cnc(N)nc3)c2)c(=O)cc1-c1cc(Cl)ccc1-n1cnnn1	–	11.5
COc1cn(Cc2ccc(F)c(-c3ccc(O)cc3)c2)c(=O)cc1-c1cc(Cl)ccc1-n1cnnn1	63.2	1.4
COc1cn(Cc2cccc(-c3ccc(C(N)=O)cc3F)c2)c(=O)cc1-c1cc(Cl)ccc1-n1cnnn1	82.8	3
